Legend:
[1] = test system: Salmonella typhimurium (TA1535, TA1537, TA98 and TA100) and Escherichia coli WP2 uvrA (pKM101); assay: Ames testing (bacterial mutagenicity, with and without S9-mix); details: absence and presence of S9-mix; for Ames Result (compound): 5 to 5000 ug/plate; for Ames Result (associated aniline): aniline associated with the compound
[2] = molecular target: human Kv3.1 channels (hKv3.1) (Homo sapiens, UniProt P48547); assay: cell-based; assay type: cell-based; details: for Kv3.1 pEC50: HEK-hKv3.1 cells, -15 mV voltage step, normalised to 50 microM reference compound; for Kv3.1 max R %: maximum response relative to reference compound (50 microM)
Source text: The ability of the compounds of the invention to modulate the voltage-gated potassium channel subtypes Kv3.3/Kv3.2/Kv3.1 may be determined using the following assay. Analogous methods may be used to investigate the ability of the compounds of the invention to modulate other channel subtypes.
To assess compound effects on human Kv3.1 channels (hKv3.1):
Human embryonic kidney (HEK)-hKv3.1 cell line is generated by transfecting HEK-293 cells with an expression vector with human Kv3.1 (NM_004976.4). Cells are cultured with MEM supplemented with 10% Heat-Inactivated FBS, 2 mM L-glutamine, 1% Penicillin-Streptomycin, and 0.6 mg/ml of Geneticin (G418). HEK-hKv3.1b cells were amplified in T175 cm2 flask at 37° C. with 5% CO2, using MEM amplification medium, containing the G418 selection antibiotic (0.6 mg/ml). Cells were detached every 3-4 days, using DPBS to wash twice the flask, then TrypLE to dislodge the cells, and re-plated at a density of 2-4×10^6 cells/flask.
The day of the experiment, cells are removed from the incubator and the culture medium removed. Cells are washed with 5 ml of Dulbecco's PBS (DPBS) calcium and magnesium free and detached by the addition of 3 ml Versene (Invitrogen, Italy) followed by a brief incubation at 37° C. for 5 minutes. The flask is tapped to dislodge cells and 10 ml of DPBS containing calcium and magnesium is added to prepare a cell suspension. The cell suspension is then placed into a 15 ml centrifuge tube and centrifuged for 2 min at 1200 rpm. After centrifugation, the supernatant is removed and the cell pellet re-suspended in 4 ml of DPBS containing calcium and magnesium using a 5 ml pipette to break up the pellet. Cell suspension volume is then corrected to give a cell concentration for the assay of approximately 3 million cells per ml.
Experiments are conducted at r.t. using IonWorks Quattro™ planar array electrophysiology technology (Molecular Devices Corp.) with PatchPlate™ PPC. Stimulation protocols and data acquisition are carried out using a microcomputer (Dell Pentium 4). Planar electrode hole resistances (Rp) are determined by applying a 10 mV voltage step across each well. These measurements are performed before cell addition. After cell addition and seal formation, a seal test is performed by applying a voltage step from −80 mV to −70 mV for 160 ms. Following this, amphotericin-B solution is added to the intracellular face of the electrode to achieve intracellular access. Cells are held at −70 mV. Leak subtraction is conducted in all experiments by applying 50 ms hyperpolarizing (10 mV) prepulses to evoke leak currents followed by a 20 ms period at the holding potential before test pulses.
For hKv3.2 and hKv3.1, assays from the holding potential of −70 mV, a first test pulse at −15 mV was applied for 100 ms and after 100 ms at −70 mV a second pulse at +40 mV was applied for 50 ms. Cells were then maintained for 100 ms at −100 mV and another pulse from −70 mV to +40 mV (duration 50 ms) was applied to clamp later the voltage at −40 mV during 200 ms
The intracellular solution contains the following (in mM): K-gluconate 100, KCl 54, MgCl2 3.2, HEPES 5, adjusted to pH 7.3 with KOH. Amphotericin-B solution is prepared as 50 mg/ml stock solution in DMSO and diluted to a final working concentration of 0.1 mg/ml in intracellular solution. The external solution is Dulbecco's Phosphate Buffered Saline (DPBS) and contained the following (in mM): CaCl2 0.90, KCl 2.67, KH2PO4 1.47, MgCl·6H2O 0.493, NaCl 136.9, Na3PO4 8.06, with a pH of 7.4.
Compounds of use in the invention (or reference compounds such as N-cyclohexyl-N-[(7,8-dimethyl-2-oxo-1,2-dihydro-3-quinolinyl)methyl]-N-phenylurea) are dissolved in dimethylsulfoxide (DMSO) at a stock concentration of 10 mM. These solutions are further diluted with DMSO using a Biomek FX (Beckman Coulter) in a 384 compound plate. Each dilution (1 μL) is transferred to another compound plate and external solution containing 0.05% pluronic acid (66 μL) is added. […]

[3] = Determination of brain tissue binding (equilibrium dialysis); assay type: in vitro ADME; details: Sprague Dawley, rat whole brain homogenate, 5 h at 37° C.
Experimental: Sprague Dawley rat whole blood, collected on the week of the experiment using K3-EDTA as an anti-coagulant, is diluted with isotonic phosphate buffer 1:1 (v/v). Sprague Dawley rat whole brain, stored frozen at −20° C., is thawed and homogenised in artificial cerebrospinal fluid (CSF) 1:2 (w/v).
An appropriate amount of test compound is dissolved in DMSO to give a 10 millimolar solution. Further dilutions, to obtain a 166.7 micromolar working solution are then prepared using 50% acetonitrile in MilliQ water. This working solution is used to spike the blood to obtain a final concentration of 0.5 micromolar in whole blood. Similarly, the working solution is used to spike brain samples to obtain a final concentration of 5 micromolar in whole brain. From these spiked blood and brain preparations, control samples (n=3), are immediately extracted and used to calculate the initial recovery of the test items.
150 microL of compound-free buffer (isotonic phosphate buffer for blood or artificial CSF buffer for brain) is dispensed in one half-well and 150 microL of spiked matrix (blood or brain) is loaded in the other half-well, with the two halves separated by a semi-permeable membrane. After an equilibration period of 5 h at 37° C., 50 microL of dialysed matrix (blood or brain) is added to 50 microL of corresponding compound-free buffer, and vice-versa for buffer, such that the volume of buffer to matrix (blood or brain) remains the same. Samples are then extracted by protein precipitation with 300 microL of acetonitrile containing rolipram (control for positive ionization mode) or diclofenac (control for negative ionization mode) as internal standards and centrifuged for 10 min at 3000 rpm. Supernatants are collected (100 microL), diluted with 27% AcN in MilliQ water (200 microL) and then injected into an HPLC-MS/MS or UPLC-MS/MS system to determine the concentration of test compound present.
Blood and brain tissue binding are then determined using the following formulas: Afu=Buffer/Blood or Afu=CSF/Brain
Where Afu=apparent fraction unbound; Buffer=analyte/internal standard ratio determined in the buffer compartment; Blood=analyte/internal standard ratio determined in the blood compartment; Brain=analyte/internal standard ratio determined in the brain compartment.
[formula] where: fucr=Fraction unbound corrected; D=matrix dilution factor (D=2 for blood and D=3 for brain).
Then: % Binding=(1−fucr)×100 % Unbound=100−% Bound Brain/Blood Partition Ratio (Kbb) Determination

## Cc1ccc(Oc2cnc(N3C(=O)NC(C)(C)C3=O)cn2)c2c1OCC21CC1 [Example 1, 5,5-dimethyl-3-[5-(7-methylspiro[2H-benzofuran-3,1′-cyclopropane]-4-yl)oxypyrazin-2-yl]imidazolidine-2,4-dione]
[1]
  Ames Result (compound): Non- mutagenic
[2]
  EC50: 2750 nM
  pEC50 and maxR in the Kv3.1 assay (in words): high pEC50 and high maxR
  Kv3.1 pEC50: 5.47
  Kv3.1 max R %: 164%
[3]
  fraction unbound at 5 h, 5 micromolar: 0.043

## Cc1ccc(Oc2ccc(N3C(=O)NC(C)(C)C3=O)cn2)c2c1OCC21CC1 [RE6, reference compound]
[1]
  Ames Result (compound): Non- mutagenic
[2]
  Kv3.1 pEC50: 5.58
  Kv3.1 max R %: 144%
[3]
  fraction unbound at 5 h, 5 micromolar: 0.028

## Cc1ccc(Oc2ccc(N)cn2)c2c1OCC21CC1 [aniline associated with RE6/RE11]
[1]
  Ames Result (associated aniline): Mutagenic for TA1535 in the presence of metabolic activation at 150 ug/plate

## Nc1cnc(Oc2cccc3c2C2(CC2)CO3)cn1 [aniline for Example 10]
[1]
  Ames Result (associated aniline): Non-mutagenic

## Cc1ccc(Oc2cnc(N)cn2)c2c1OCC21CC1 [aniline for Examples 1 and 9]
[1]
  Ames Result (associated aniline): Non-mutagenic
